In brackets after ≈: the same amount, converted by molar mass. Read-outs that look alike come from different tables or passages of the source.
Key:
[1] = system: Salmonella enterica strain AMC (ATCC #6539); assay: Antibiotic assay: MIC by Promega Bac Titer-Glo microbial cell viability assay; format: cell-based; settings: 24 hours treatment, inoculum ~5×10^4 CFU/mL, Mueller Hinton broth
Protocol: In a preferred embodiment, the novel a novel tricyclic compounds of formula (I) and formula (II) are evaluated for anti-microbial activity. The minimum inhibitory concentrations (MICs) is determined using the Promega Bac Titer-Glo microbial cell viability assay. The assays is carried out using Salmonella enterica strain AMC (ATCC #6539), Inocula of S. enterica prepared from 12-h broth cultures grown in Mueller Hinton broth and the suspensions were then adjusted to a turbidity of 0.5 McFarland. […] Bacterial cells were treated with hunanamycin analogs for 24 hours at ranges from 0.4 to 40 μg/mL and ciprofloxacin as a control ranging from 0.03 to 10 μg/mL. The OD600 measured using an Envision multi-modal plate reader (Perkin-Elmer, Inc.).
The minimum inhibitory concentrations (MICs) were determined using the Promega Bac Titer-Glo microbial cell viability assay, which measures cell viability by quantitation of ATP present, an indicator of metabolic activity of cells. The assays were carried out using Salmonella enterica strain AMC (ATCC #6539), Inocula of S. enterica were prepared from 12-h broth cultures grown in Mueller Hinton broth and the suspensions were then adjusted to a turbidity of 0.5 McFarland. […] Bacterial cells were treated with hunanamycin analogs for 24 hours at ranges from 0.4 to 40 μg/mL and ciprofloxacin as a control ranging from 0.03 to 10 μg/mL. The OD600 was measured using an Envision multi-modal plate reader (Perkin-Elmer, Inc.). The antibiotic assays were performed in Prof. John B. MacMillan's lab, Department of Biochemistry, University of Texas Southwestern Medical Center at Dallas, USA.

[2] = system: Salmonella enterica; settings: against the bacterial pathogen Salmonella enterica; literature value; cited from earlier work
[3] = Salmonella enterica, ATCC6539, 24 h, read-out: MIC
[4] = Salmonella enterica, ATCC6539, 24 h

| Compound | MIC [1, 3] | also measured |
| --- | --- | --- |
| COC1O[C@H](Cn2c(=O)n3c4c(cccc42)C(C)(C)CC3)[C@@H](O)[C@H]1O (stereo partly drawn) [Compound 25, 1-(((2R,3S,4R)-3,4-dihydroxy-5-methoxytetrahydrofuran-2-yl)methyl)-6,6-dimethyl-5,6-dihydro-4H-imidazo[4,5,1-ij]quinolin-2(1H)-one] | 2 µg/mL (≈ 5.74 µM) | – |
| CC1(C)CCn2c(=O)n(C[C@H](O)[C@H](O)[C@H](O)CO)c3cccc1c32 [Compound 21, 6,6-dimethyl-1-((2S,3S,4R)-2,3,4,5-tetrahydroxypentyl)-5,6-dihydro-4H-imidazo[4,5,1-ij]quinolin-2(1H)-one] | 4 µg/mL (≈ 11.9 µM) | – |
| CC1(C)CCn2c(=O)n(CC(O)CO)c3cccc1c32 (stereo not drawn) [Compound 23, 1-(2,3-dihydroxypropyl)-6,6-dimethyl-5,6-dihydro-4H-imidazo[4,5,1-ij]quinolin-2(1H)-one] | > 16 µg/mL | – |
| CC1(C)CCn2c(=O)c(OC[C@H](O)[C@H](O)[C@H](O)CO)nc3cccc1c32 [Compound 6, 7,7-dimethyl-2-(((2S,3R,4R)-2,3,4,5-tetrahydroxypentyl)oxy)-6,7-dihydro-3H,5H-pyrido[1,2,3-de]quinoxalin-3-one] | > 16 µg/mL | – |
| CC1(C)CCn2c(=O)c(=O)n(C[C@H](O)[C@H](O)[C@H](O)CO)c3cccc1c32 [Compound 7, 7,7-dimethyl-1-((2S,3S,4R)-2,3,4,5-tetrahydroxypentyl)-6,7-dihydro-1H,5H-pyrido[1,2,3-de]quinoxaline-2,3-dione] | > 16 µg/mL | – |
| Cc1cc2nc(OC[C@H](O)[C@H](O)[C@H](O)CO)c(=O)n3c2c(c1C)C(C)(C)CC3 [Compound 1, 7,7,8,9-tetramethyl-2-(((2S,3R,4R)-2,3,4,5-tetrahydroxy-pentyl)oxy)-6,7-dihydro-3H,5H-pyrido[1,2,3-de]quinoxalin-3-one] | – | MIC [1, 4]: 8 µg/mL (≈ 20.4 µM) |
| Cc1cc2c3c(c1C)C(C)(C)CCn3c(=O)c(=O)n2C[C@@H](O)[C@H](O)[C@H](O)CO [7,7,8,9-tetramethyl-1-((2R,3S,4R)-2,3,4,5-tetrahydroxy-pentyl)-6,7-dihydro-1H,5H-pyrido[1,2,3-de]quinoxaline-2,3-dione] | – | MIC [1, 4]: 8 µg/mL (≈ 20.4 µM) |
| Cc1cc2c3c(c1C)C(C)(C)CCn3c(=O)c(=O)n2C[C@@H](O)[C@H](O)[C@H](O)CO [Compound 3, 7,7,8,9-tetramethyl-1-((2R,3S,4R)-2,3,4,5-tetrahydroxy-pentyl)-6,7-dihydro-1H,5H-pyrido[1,2,3-de]quinoxaline-2,3-dione] | – | MIC [1]: 8 µg/mL (≈ 20.4 µM) |
| CC1(C)CCn2c(=O)c(=O)n(CC(O)CO)c3cccc1c32 (stereo not drawn) [Compound 9, 1-(2,3-dihydroxypropyl)-7,7-dimethyl-6,7-dihydro-1H,5H-pyrido[1,2,3-de]quinoxaline-2,3-dione] | – | MIC [1, 4]: 8 µg/mL (≈ 26.3 µM) |
| CC1(C)CCn2c(=O)n(C[C@@H](O)[C@H](O)CO)c3cccc1c32 [Compound 26, 6,6-dimethyl-1-((2R,3R)-2,3,4-trihydroxybutyl)-5,6-dihydro-4H-imidazo[4,5,1-ij]quinolin-2(1H)-one] | > 16 µg/mL | – |
| Cc1cc2c3c(c1C)C(C)(C)CCn3c(=O)c(=O)n2C[C@H](O)[C@H](O)[C@H](O)CO [Compound 2, 7,7,8,9-tetramethyl-1-((2S,3S,4R)-2,3,4,5-tetrahydroxypentyl)-6,7-dihydro-1H,5H-pyrido[1,2,3-de]quinoxaline-2,3-dione] | 8 µg/mL (≈ 20.4 µM) | – |
| CC1(C)CCn2c(=O)c(=O)n(C[C@@H](O)[C@H](O)CO)c3cccc1c32 [Compound 12, 7,7-dimethyl-1-((2R,3R)-2,3,4-trihydroxybutyl)-6,7-dihydro-1H,5H-pyrido[1,2,3-de]quinoxaline-2,3-dione] | > 16 µg/mL | – |
| COC1O[C@H](Cn2c(=O)c(=O)n3c4c(cccc42)C(C)(C)CC3)[C@@H](O)[C@H]1O (stereo partly drawn) [Compound 11, 1-(((2R,3S,4R)-3,4-dihydroxy-5-methoxytetrahydrofuran-2-yl)methyl)-7,7-dimethyl-6,7-dihydro-1H,5H-pyrido[1,2,3-de]quinoxaline-2,3-dione] | > 16 µg/mL | – |
| CC1(C)CCn2c(=O)n(Cc3cn(CCO)nn3)c3cccc1c32 [1-((1-(2-hydroxyethyl)-1H-1,2,3-triazol-4-yl)methyl)-6,6-dimethyl-5,6-dihydro-4H-imidazo[4,5,1-ij]quinolin-2(1H)-one] | – | MIC [1, 4]: 8 µg/mL (≈ 24.4 µM) |
| CC1(C)CCn2c(=O)c(OC[C@H](O)[C@@H](O)CO)nc3cccc1c32 [Compound 13, 7,7-dimethyl-2-((2S,3S)-2,3,4-trihydroxybutoxy)-6,7-dihydro-3H,5H-pyrido[1,2,3-de]quinoxalin-3-one] | 16 µg/mL (≈ 47.9 µM) | – |
| Cc1cc2c3c(c1C)C(C)(C)CCn3c(=O)c(=O)n2CC(O)C(O)C(O)CO (stereo not drawn) [Compound 5, 7,7,8,9-tetramethyl-1-(2,3,4,5-tetrahydroxypentyl)-6,7-dihydro-1H,5H-pyrido[1,2,3-de]quinoxaline-2,3-dione] | 4 µg/mL (≈ 10.2 µM) | – |
| Cc1cc2c3c(c1C)C(C)(C)CCn3c(=O)c(=O)n2CC(O)CO (stereo not drawn) [Compound 4, 1-(2,3-dihydroxypropyl)-7,7,8,9-tetramethyl-6,7-dihydro-1H,5H-pyrido[1,2,3-de]quinoxaline-2,3-dione] | > 16 µg/mL | – |
| CC1(C)CCn2c(=O)c(OC[C@H](O)CO)nc3cccc1c32 [Compound 16, (R)-2-(2,3-dihydroxypropoxy)-7,7-dimethyl-6,7-dihydro-3H,5H-pyrido[1,2,3-de]quinoxalin-3-one] | > 16 µg/mL | – |
| CCOC(=O)Cn1cc(Cn2c(=O)n3c4c(cccc42)C(C)(C)CC3)nn1 [Compound 24b, Ethyl 2-(4-((6,6-dimethyl-2-oxo-5,6-dihydro-4H-imidazo[4,5,1-ij]quinolin-1(2H)-yl)methyl)-1H-1,2,3-triazol-1-yl)acetate] | 8 µg/mL (≈ 21.7 µM) | – |
| CCOC(=O)Cn1cc(Cn2c(=O)c(=O)n3c4c(cccc42)C(C)(C)CC3)nn1 [Compound 10, ethyl 2-(4-((7,7-dimethyl-2,3-dioxo-2,3,6,7-tetrahydro-1H,5H-pyrido[1,2,3-de]quinoxalin-1-yl)methyl)-1H-1,2,3-triazol-1-yl)acetate] | > 16 µg/mL | – |
| CC(O)C(O)Cn1c(=O)c(=O)n2c3c(cccc31)C(C)(C)CC2 (stereo not drawn) [Compound 14, 1-(2,3-dihydroxybutyl)-7,7-dimethyl-6,7-dihydro-1H,5H-pyrido[1,2,3-de]quinoxaline-2,3-dione] | > 16 µg/mL | – |
| CC1(C)CCn2c(=O)n(Cc3cn(CCO)nn3)c3cccc1c32 [Compound 24, 1-((1-(2-hydroxyethyl)-1H-1,2,3-triazol-4-yl)methyl)-6,6-dimethyl-5,6-dihydro-4H-imidazo[4,5,1-ij]quinolin-2(1H)-one] | – | MIC [1]: >16 µg/mL |
| CC1(C)CCn2c(=O)c(=O)n(CC(O)C(C)(C)O)c3cccc1c32 (stereo not drawn) [Compound 15, 1-(2,3-dihydroxy-3-methylbutyl)-7,7-dimethyl-6,7-dihydro-1H,5H-pyrido[1,2,3-de]quinoxaline-2,3-dione] | > 16 µg/mL | – |
| CC1(C)CCn2c(=O)c(=O)n(C[C@@H](O)[C@H](O)[C@H](O)CO)c3cccc1c32 [Compound 8, 7,7-dimethyl-1-((2R,3S,4R)-2,3,4,5-tetrahydroxypentyl)-6,7-dihydro-1H,5H-pyrido[1,2,3-de]quinoxaline-2,3-dione] | > 16 µg/mL | MIC [1]: >16 µg/mL |
| Cc1cc2c3c(c1C)C(C)(C)CCn3c(=O)c(=O)n2C[C@H](O)[C@H](O)[C@H](O)CO (stereo in doubt) [Compound 2, 7,7,8,9-tetramethyl-1-((2S,3S,4R)-2,3,4,5-tetrahydroxypentyl)-6,7-dihydro-1H,5H-pyrido[1,2,3-de]quinoxaline-2,3-dione] | – | minimum inhibitory concentration (MIC) [2]: 12.4 µM (≈ 4.87 µg/mL); MIC [1, 4]: 8 µg/mL (≈ 20.4 µM) |

From patent publication US9822113B2, “Tricyclic compounds and process for preparation thereof” (Council of Scientific & Industrial Research, priority 2013, dated 2017)
